# From patent publication US8951934B2, “Active compound combinations” (Bayer CropScience AG, priority 2008, dated 2015)
# Where two headings read alike, the source gives them in different places.
# Key:
# Format in all cases: in vivo
# Pyrenophora teres = experiment: Pyrenophora teres-test (barley)/preventive; conditions: 192 h, read-out: Efficacy in %
# Excerpt: (§1) The expected fungicidal action for a given combination of two or three active compounds can be calculated as follows, according to S. R. Colby (“Calculating Synergistic and Antagonistic Responses of Herbicide Combinations”, Weeds 1961 15, 20-22):
# (§2) If • X is the efficacy when employing active compound A at an application rate of m g/ha, • Y is the efficacy when employing active compound B at an application rate of n g/ha and • E is the efficacy when employing active compounds A and B at application rates of m and n g/ha,
# (§3) Here, the efficacy is determined in %. 0% means an efficacy which corresponds to that of the control, whereas an efficacy of 100% means that no infection is observed.
# (§4) If the actual fungicidal action exceeds the calculated value, the action of the combination is superadditive, i.e. a synergistic effect is present. In this case, the actually observed efficacy must exceed the value calculated using the above formula for the expected efficacy (E).
# Pyrenophora teres-Test (Barley)/Preventive
# (§5) Solvent: 49 parts by weight of n,n-dimethylacetamid
# (§6) Emulsifier: 1 part by weight of alkylaryl polyglycol ether
# (§7) To produce a suitable preparation of active compound, 1 part by weight of active compound or active compound combination is mixed with the stated amounts of solvent and emulsifier, and the concentrate is diluted with water to the desired concentration.
# (§8) To test for preventive activity, young plants are sprayed with the preparation of active compound or active compound combination at the stated rate of application.
# After the spray coating has been dried on, the plants are sprayed with a spore suspension of Pyrenophora teres. The plants remain for 48 hours in an incubation cabinet at approximately 20° C. and a relative atmospheric humidity of approximately 100%.
# The plants are placed in the greenhouse at a temperature of approximately 20° C. and a relative atmospheric humidity of approximately 80%.
# The test is evaluated 8 days after the inoculation. 0% means an efficacy which corresponds to that of the control, while an efficacy of 100% means that no disease is observed.
# Uromyces appendiculatus = experiment: Uromyces test (beans)/protective; conditions: protective spray, evaluated 10 days after inoculation
# Excerpt: as §1, §2, §3, §4
# Uromyces Test (Beans)/Protective
# (§9) Solvent: 24,5 parts by weight of acetone • 24,5 parts by weight of dimethylacetamide
# as §6
# (§10) To produce a suitable preparation of active compound, 1 part by weight of active compound is mixed with the stated amounts of solvent and emulsifier, and the concentrate is diluted with water to the desired concentration.
# (§11) To test for protective activity, young plants are sprayed with the preparation of active compound at the stated rate of application. After the spray coating has dried on, the plants are inoculated with an aqueous spore suspension of the causal agent of bean rust (Uromyces appendiculatus) and then remain for 1 day in an incubation cabinet at approximately 20° C. and a relative atmospheric humidity of 100%.
# (§12) The plants are then placed in a greenhouse at approximately 21° C. and a relative atmospheric humidity of approximately 90%.
# (§13) The test is evaluated 10 days after the inoculation. 0% means an efficacy which corresponds to that of the control, while an efficacy of 100% means that no disease is observed.
# Septoria tritici = experiment: Septoria tritici-test (wheat)/preventive; conditions: preventive spray, evaluated 21 days after inoculation
# Excerpt: as §1, §2, §3, §4
# Septoria tritici-Test (Wheat)/Preventive
# as §5, §6, §7, §8
# After the spray coating has been dried on, the plants are sprayed with a spore suspension of Septoria tritici. The plants remain for 48 hours in an incubation cabinet at approximately 20° C. and a relative atmospheric humidity of approximately 100% and afterwards for 60 hours at approximately 15° C. in a translucent incubation cabinet at a relative atmospheric humidity of approximately 100%.
# The plants are placed in the greenhouse at a temperature of approximately 15° C. and a relative atmospheric humidity of approximately 80%.
# The test is evaluated 21 days after the inoculation. 0% means an efficacy which corresponds to that of the control, while an efficacy of 100% means that no disease is observed.
# [1] = tested on: Blumeria graminis f.sp. tritici; experiment: Blumeria test (wheat)/preventive; conditions: preventive spray, evaluated 7 days after inoculation
# Excerpt: as §1, §2, §3, §4
# Blumeria Test (Wheat)/Preventive
# as §5
# (§14) Emulsifier: 1 part by weight of alkylaryl polyglycol ether […]
# (§15) The test is evaluated 7 days after the inoculation. […]
# Venturia inaequalis = experiment: Venturia test (apples)/protective; conditions: protective spray, evaluated 10 days after inoculation
# Excerpt: as §1, §2, §3, §4
# Venturia Test (Apples)/Protective
# as §9, §6, §10
# as §11, with “conidia” for “spore”, “apple scab (Venturia inaequalis)” for “bean rust (Uromyces appendiculatus)”
# as §12, §13
# Sphaerotheca fuliginea = experiment: Sphaerotheca test (cucumbers)/protective; conditions: protective spray, evaluated 7 days after inoculation
# Excerpt: as §1, §2, §3, §4
# Sphaerotheca Test (Cucumbers)/Protective
# as §9, §14, §15
# [2] = barley, preventive spray, 62.5 ppm, evaluated 8 days after inoculation
smiles,measurement,setting,value
"Cc1nn(C)c(F)c1C(=O)Nc1ccccc1C(C)CC(C)C (stereo not drawn) [N-[2-(1,3-Dimethylbutyl)phenyl]-5-fluor-1,3-dimethyl-1H-pyrazole-4-carboxamide]",pest or weed control at 62.5 ppm,Pyrenophora teres; [2],89%
"CO/N=C(/C(=O)OC)c1ccccc1CO/N=C(\C)c1cccc(C(F)(F)F)c1 [Ex B1 Trifloxystrobin, Trifloxystrobin]",Efficacy in %,Uromyces appendiculatus; 1 ppm,70%
same,Efficacy in %,Septoria tritici; 62.5 ppm,94%
"COCC(=O)N(c1c(C)cccc1C)[C@H](C)C(=O)OC [Ex B4 Metalaxyl M, Metalaxyl M]",Efficacy in %,[1]; 250 ppm,0%
same,Efficacy in %,Venturia inaequalis; 200 ppm,29%
"CCCN(CCOc1c(Cl)cc(Cl)cc1Cl)C(=O)n1ccnc1 [Ex B4 Prochloraz, Prochloraz]",pest or weed control at 62.5 ppm,Pyrenophora teres,89%
"CC(C)C1CCC(Cc2ccc(Cl)cc2)C1(O)Cn1cncn1 (stereo not drawn) [Ex B2 Ipconazole, Ipconazole]",pest or weed control at 250 ppm,"Pyrenophora teres; barley, preventive spray, 250 ppm, evaluated 8 days after inoculation",33%
same,Efficacy in %,Sphaerotheca fuliginea; 5 ppm,50%
same,Efficacy in %,Sphaerotheca fuliginea; 10 ppm,77%
"COCC(=O)N(c1c(C)cccc1C)C(C)C(=O)OC (stereo not drawn) [Ex B4 Metalaxyl, Metalaxyl]",Efficacy in %,Septoria tritici; 1000 ppm,33%
"N#Cc1c[nH]cc1-c1cccc2c1OC(F)(F)O2 [Ex B4 Fludioxonil, Fludioxonil]",pest or weed control at 125 ppm,Pyrenophora teres,44%
same,Efficacy in %,Uromyces appendiculatus; 200 ppm,70%
same,Efficacy in %,Venturia inaequalis; 50 ppm,26%
same,Efficacy in %,Venturia inaequalis; 100 ppm,30%
"CO/N=C(/C1=NOCCO1)c1ccccc1Oc1ncnc(Oc2ccccc2Cl)c1F [Ex B1 Fluoxastrobin, Fluoxastrobin]",pest or weed control at 62.5 ppm,Pyrenophora teres; [2],67%
"Cc1cc(O)no1 [Ex B2 Hymexazol, Hymexazol]",pest or weed control at 1000 ppm,"Pyrenophora teres; barley, preventive spray, 1000 ppm, evaluated 8 days after inoculation",0%
"C[Si](C)(C)CC(O)(Cn1cncn1)c1ccc(F)cc1 (stereo not drawn) [Ex B2 Simeconazole, Simeconazole]",Efficacy in %,Uromyces appendiculatus; 5 ppm,84%
same,Efficacy in %,Septoria tritici; 1000 ppm,67%
N#Cc1ccccc1NC(=O)c1snc(Cl)c1Cl [Ex I-2],Efficacy in %,[1]; 1000 ppm,22%
same,pest or weed control at 250 ppm,Pyrenophora teres,0%
same,pest or weed control at 1000 ppm,Pyrenophora teres,11%
same,Efficacy in %,Uromyces appendiculatus; 50 ppm,8%
same,Efficacy in %,Uromyces appendiculatus; 100 ppm,0%
same,Efficacy in %,Uromyces appendiculatus; 200 ppm,15%
same,Efficacy in %,Venturia inaequalis; 50 ppm,0%
same,Efficacy in %,Venturia inaequalis; 100 ppm,19%
same,Efficacy in %,Venturia inaequalis; 200 ppm,37%
same,Efficacy in %,Septoria tritici; 1000 ppm,0%
"Cn1cc(C(=O)Nc2ccc(F)cc2-c2ccc(Cl)c(Cl)c2)c(C(F)F)n1 [Ex B3 Bixafen, Bixafen]",pest or weed control at 62.5 ppm,Pyrenophora teres; [2],78%
same,Efficacy in %,Venturia inaequalis; 1 ppm,73%
